This note sets out measurements from US20230391841A1, “MACROCYCLIC PEPTIDES” (Herantis Pharma OYJ, priority 2019, published 2023).

Bridge positions count the residues as written; N and C are the ends. Ends that are not written are not given here. Peptide text beside a SMILES is read from it.

The nature of data set [1]: In vivo pharmacokinetics after intravenous administration to rats. Also on record: species or system male Sprague-Dawley rats. The note with it: rat, 5 mg/kg intravenous bolus, male Sprague-Dawley rats. The method, then:
The clearance and elimination of peptides can be mediated by multiple processes in vivo, including metabolism and renal elimination.
Test compounds were intravenously (i.v.) administered to male Spraque-Dawley rats (about is six weeks old, n=3 per compound) at 5 mg/kg. Blood samples were collected from jugular vein through implanted in-dwelling catheters (250 pl blood) into labelled polypropylene tubes containing anticoagulant (heparin) at 2 min, 5 min,15 min, 30 min, 1 h, 2 h and 4 h after compound administration and held on wet ice for a maximum of 30 minutes. The blood samples were centrifuged for plasma separation (4 °C, 21100 G, 5 min). Tolbutamide 500ng/ml with 10% TFA in acetonitrile or in MeCN was used as an internal standard solution.
The standard samples were prepared into rat plasma by spiking the matrix into concentrations 2-10 000 ng/ml of the analyte, respectively, and otherwise treated as the samples. To 50 pl aliquots of sample plasma was added 200 pl of internal standard. Samples were mixed (150 rpm, 15 min) and centrifugated (3000 rpm, 15min). The analytical method was optimized for reaction monitoring chromatographic (peak shape & retention) shifts and mass spectrometric properties (ionization efficiency, MS/MS detection). Supernatants were analyzed by UHPLC-TOF mass spectrometry using electrospray ionization.

Data set [2] relates to dopaminergic TH-positive neurons injured with MPP+. Description: Neuroprotective effect on dopaminergic TH-positive neurons injured with MPP+ (primary mesencephalic culture). It counts as cell-based, rat. The method, then:
Neuroprotective effects of compounds 1-26 (SEQ ID NO: 1-26) were tested in an in vitro model in which primary cultures of rat embryonic mesencephalic neurons were stressed with MPP+ , the active metabolite of neurotoxin 1-methyl-4-phenyl-1,2,3,6-tetrahydropyridine (MPTP). MPP+ kills dopaminergic (TH-positive) neurons via a variety of toxic mechanisms, including mitochondrial dysfunction, generation of peroxynitrite, oxidative stress, ER stress and induction of apoptosis.
Culture of mesencephalic neurons. Rat dopaminergic neurons were cultured as described by Visanji et al., 2008. Briefly, the midbrains obtained from 15-day-old rat embryos (Janvier, France) were dissected, and the ventral portion of the mesencephalic flexure, a region of the developing brain rich in dopaminergic neurons, was used for the cell preparations. The midbrain cells were dissociated by trypsinization for 20 min at 37° C. (solution at a final concentration of 0.05% trypsin and 0.02% EDTA). The reaction was stopped by adding Dulbecco's modified Eagle's medium (DMEM) containing DNAase I grade II (0.5 mg/mL) and 10% of fetal calf serum (FCS). Cells were then mechanically dissociated by 3 passages through a 10 ml pipette. Cells were then centrifuged at 180×g for 10 min at +4° C. on a layer of BSA (3.5%) in L15 medium. The cell pellets were re-suspended in a defined culture serum-free medium consisting of Neurobasal (Invitrogen) supplemented with B27 (2%), L-glutamine (2 mM) and 2% of PS solution and 1Ong/ml of Brain-derived neurotrophic factor (BDNF) and 1 ng/mL of Glial-Derived Neurotrophic Factor (GDNF). Viable cells were counted in a Neubauer cytometer using the trypan blue exclusion test. The cells were seeded at a density of 40 000 cells/well in 96 well-plates (pre-coated with poly-L-lysine) and maintained in a humidified incubator at 37° C. in 5% CO2/95% air atmosphere. Half of the medium was changed every 2 days with fresh medium. On 96-wells plates, only 60 wells are used. To avoid any edge effect, the first and last lines and columns were not used for culture and were filled with sterile water.
CDNF as well as linear and macrocyclic compounds […] (SEQ ID NOs: 1-26) were tested. On day 6 of culture, the compounds were dissolved in culture medium and then pre-is incubated with mesencephalic neurons for 4 hours before the MPP+ application. Four hours after the preincubation of the compounds, MPP+ was added to a final concentration of 4 pM, diluted in control medium still in presence of compounds for 48 h.
48 h after intoxication, the cells were fixed by a solution of 4% paraformaldehyde in PBS, pH 7.3 for 20 min at room temperature. The cells were washed twice in PBS, and then permeabilized and non-specific sites were blocked with a solution of PBS containing 0.1% of saponin and 1% FCS for 15 min at room temperature. Next, the cells were incubated with (a) a monoclonal antibody anti-Tyrosine Hydroxylase (TH) produced in mouse at dilution of 1:10000 and with (b) a polyclonal antibody anti-alpha-synuclein (α-syn) antibody produced in rabbit at dilution of 1:400 in PBS containing 1% FCS, 0.1% saponin, for 2 h at room temperature.
48 h after intoxication, the cell culture supernatant was removed, and the cells fixed by a solution of 4% paraformaldehyde in PBS, pH 7.3 for 20 min at room temperature. The cells were washed twice in PBS, and then permeabilized and non-specific sites were blocked with a solution of PBS containing 0.1% of saponin and 1% FCS for 15 min at room temperature. Then, the cells were incubated with a) a monoclonal Anti-Tyrosine Hydroxylase (TH) antibody produced in mouse at dilution of 1:10000 in PBS containing 1% FCS, 0.1% saponin, for 2 hours at room temperature, and b) a polyclonal anti-postsynaptic density protein-95 (PSD-95) antibody produced in rabbit at dilution of 1:200 in PBS containing 1% FCS, 0.1% saponin, for 2 h at room temperature. This antibody stains specifically synapses. […]

For the next data set, the target named is GRP78-NBD. The data set can be described thus: Binding to GRP78-NBD Kd (μM). An excerpt:
Table printed on a drawing sheet, FIG. 5B
Head of the field: Binding to GRP78-NBD Kd (μM)
GRP78-NBD is shown in a translucent surface model along with its cartoon trace. The Cys-Cys bond in compound 12 (SEQ ID NO: 12) is shown in sticks.
The binding affinities are obtained by a microscale thermophoresis-based cell-free assay.
GSK2606414 was used to inhibit PERK signaling and KIRA6 to inhibit IRE1alpha signaling. * p<0.05, ** p<0.01, *** p<0.001, **** p<0.0001 one-way ANOVA is test with post-hoc Fisher's LSD test for pairwise comparison vs MPP+ negative control. # p<0.05, ## p<0.01, ### p<0.001, #### p<0.0001 one-way ANOVA test with post-hoc Fisher's LSD test for pairwise comparison between effect of compound alone and its combination with UPR signal inhibitor.
Where the first naming reader finds the target: head: Binding to GRP78-NBD Kd (μM)

Turning to `CC[C@H](C)[C@H](NC(=O)[C@H](CCCCN)NC(=O)[C@H](CCCCN)NC(=O)[C@H](CC(C)C)NC(=O)[C@H](CCC(=O)O)NC(=O)[C@H](CCCCN)NC(=O)[C@@H](NC(=O)[C@H](CCCNC(=N)N)NC(=O)[C@H](CC(C)C)NC(=O)[C@H](CCCCN)NC(=O)[C@H](CCCCN)NC(=O)[C@H](CC(C)C)NC(=O)[C@H](CC(=O)O)NC(=O)[C@@H](N)C(C)C)C(C)C)C(=O)N[C@@H](CC(C)C)C(=O)N[C@@H](CC(=O)O)C(=O)N[C@@H](CC(=O)O)C(=O)N[C@@H](Cc1c[nH]c2ccccc12)C(=O)NCC(=O)N[C@@H](CCC(=O)O)C(=O)N[C@H](C(=O)N[C@H]1CSSC[C@@H](C(=O)N[C@@H](C)C(=O)N[C@@H](CCC(=O)O)C(=O)O)NC(=O)CNC(=O)[C@H](CCCCN)NC1=O)[C@@H](C)O` [Compound 3] (H-VDLKKLRVKELKKILDDWGETCKGCAE-OH; disulfide 22-25), in data set [1] (in vivo), the AUC(0-inf) (commonly the area under the concentration-time curve extrapolated to infinity) stood at 4150 ng·h/mL; the MRT (commonly a mean duration of stay, worked out from the concentration-time curve) was 1.07 min; the distribution volume (Vd) (commonly a proportionality between amount in the body and measured concentration, not a real space) is 0.02 L/kg; the half-life (in general, the time needed for the level to fall by half in the phase considered) worked out at 4.52 min. The clearance in data set [1] (plasma, read-out: CI) turned out to be 20.1 mL/min/kg.

Take “CDNF: full-length cerebral dopamine neurotrophic factor protein (rhCDNF), positive reference in the MPP+ neuroprotection model”: the “number of α-Syn inclusions (alpha-synuclein aggregates) in TH-positive neurons” value in data set [2] (primary rat mesencephalic culture after MPP+ injury) was “reducing accumulation”. Moreover, the “protection of TH-positive neurons, their neurites and synapses from MPP+ toxicity” value in data set [2] (primary rat mesencephalic culture, 4 h preincubation, MPP+ 48 h) is recorded as “neuroprotective”.

Take “GEECRACAEKT (disulfide 4-7) [Compound 15]”: the Kd – broadly, a measure of binding affinity in units of concentration – at GRP78-NBD was found to be 3210 nM.

“KSILDDWGETCKGCAE (disulfide 11-14) [Compound 9]”: on GRP78-NBD, the Kd was found to be 11000 nM.

As for “VDLKKLRVKELKKILDDWGETCKGCAE (disulfide 22-25) [Compound 3]”, on GRP78-NBD, the Kd stood at 290 nM.

Consider “VDLRKMRVAELKQILHSWGEECRACAE (disulfide 22-25) [Compound 1]”, for which the Kd on GRP78-NBD turned out to be 60 nM.

Turning to “WGETCKGCAEKS (disulfide 5-8) [Compound 13]”, on GRP78-NBD, the Kd was 1080 nM.
